From US10081624B2, “Heterocyclic compound” (Takeda Pharmaceutical Company Limited, priority 2014, dated 2018)

How the values were obtained:
[1] = molecular target: T1, HDAC1 enzyme (Homo sapiens, UniProt Q13547); experiment: HDAC1 enzyme inhibitory assay (HDAC-Glo I/II Assay kit); type: biochemical; settings: 1 μM test compound; for inhibition at 1 µM: read-out: HDAC1 inhibitory rate (%) (1 μM)
T1 construct: prepared by transducing full length HDAC1 and HDAC6 genes into Sf-9 insect cells; GST; purchased SignalChem; host or cells: Sf-9 insect cells
T1 sequence (Q13547 whole entry): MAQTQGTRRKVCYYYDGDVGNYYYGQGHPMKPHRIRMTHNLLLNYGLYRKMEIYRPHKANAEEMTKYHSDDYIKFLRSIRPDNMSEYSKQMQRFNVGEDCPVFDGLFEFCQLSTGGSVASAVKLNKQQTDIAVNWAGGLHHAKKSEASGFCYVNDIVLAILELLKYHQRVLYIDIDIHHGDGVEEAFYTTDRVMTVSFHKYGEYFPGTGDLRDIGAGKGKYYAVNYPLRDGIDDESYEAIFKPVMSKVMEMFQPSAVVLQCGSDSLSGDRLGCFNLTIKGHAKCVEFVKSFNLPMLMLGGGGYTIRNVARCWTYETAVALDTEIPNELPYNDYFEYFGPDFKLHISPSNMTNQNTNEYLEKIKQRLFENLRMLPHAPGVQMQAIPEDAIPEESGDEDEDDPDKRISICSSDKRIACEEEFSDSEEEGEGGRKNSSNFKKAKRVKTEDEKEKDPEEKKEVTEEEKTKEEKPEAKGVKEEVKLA
Method: HDAC1 enzyme and HDAC6 enzyme each prepared by transducing full length HDAC1 and HDAC6 genes into Sf-9 insect cells and purifying by GST affinity column were purchased from SignalChem. Using these enzymes, HDAC1 and/or HDAC6 enzyme inhibitory activities of the compound of the present invention were evaluated. Enzymes were used after preserved at −70° C. HDAC1 or HDAC6 enzyme inhibitory activity of the compound of the present invention was measured using HDAC-Glo™ I/II Assay kit (Promega) according to the following experimental method. The test compound diluted with assay buffer (24 mM Tris-HCl (pH 7.5), 1 mM MgCl2, 0.35 mM KCl, 135 mM NaCl, 0.6 mM Glutathione, 0.01% Tween-20) was added to a 384-well plate by each 2 μL. Then, HDAC1 or HDAC6 enzyme solution diluted with assay buffer was added thereto by each 4 μL, and the plate was incubated at room temperature for 60 min. After incubated, HDAC substrate-Developer solution prepared according to Promega protocol attached to the assay kit was added to the 384-well plate by each 2 μL, and the enzyme reaction was started. After reacting at room temperature for 20 min, luminescence level was measured using plate reader Envision (PerkinElmer). The inhibitory activity of each compound was calculated as a relative activity value when luminescence level in wells without enzyme is considered as 100% inhibition.

[2] = molecular target: T2, HDAC6 enzyme (Homo sapiens, UniProt Q9UBN7); experiment: HDAC6 enzyme inhibitory assay (HDAC-Glo I/II Assay kit); type: biochemical; settings: 1 μM test compound; for inhibition at 1 µM: read-out: HDAC6 inhibitory rate (%) (1 μM)
T2 construct: prepared by transducing full length HDAC1 and HDAC6 genes into Sf-9 insect cells; GST; purchased SignalChem; host or cells: Sf-9 insect cells
T2 sequence (Q9UBN7 1-1215): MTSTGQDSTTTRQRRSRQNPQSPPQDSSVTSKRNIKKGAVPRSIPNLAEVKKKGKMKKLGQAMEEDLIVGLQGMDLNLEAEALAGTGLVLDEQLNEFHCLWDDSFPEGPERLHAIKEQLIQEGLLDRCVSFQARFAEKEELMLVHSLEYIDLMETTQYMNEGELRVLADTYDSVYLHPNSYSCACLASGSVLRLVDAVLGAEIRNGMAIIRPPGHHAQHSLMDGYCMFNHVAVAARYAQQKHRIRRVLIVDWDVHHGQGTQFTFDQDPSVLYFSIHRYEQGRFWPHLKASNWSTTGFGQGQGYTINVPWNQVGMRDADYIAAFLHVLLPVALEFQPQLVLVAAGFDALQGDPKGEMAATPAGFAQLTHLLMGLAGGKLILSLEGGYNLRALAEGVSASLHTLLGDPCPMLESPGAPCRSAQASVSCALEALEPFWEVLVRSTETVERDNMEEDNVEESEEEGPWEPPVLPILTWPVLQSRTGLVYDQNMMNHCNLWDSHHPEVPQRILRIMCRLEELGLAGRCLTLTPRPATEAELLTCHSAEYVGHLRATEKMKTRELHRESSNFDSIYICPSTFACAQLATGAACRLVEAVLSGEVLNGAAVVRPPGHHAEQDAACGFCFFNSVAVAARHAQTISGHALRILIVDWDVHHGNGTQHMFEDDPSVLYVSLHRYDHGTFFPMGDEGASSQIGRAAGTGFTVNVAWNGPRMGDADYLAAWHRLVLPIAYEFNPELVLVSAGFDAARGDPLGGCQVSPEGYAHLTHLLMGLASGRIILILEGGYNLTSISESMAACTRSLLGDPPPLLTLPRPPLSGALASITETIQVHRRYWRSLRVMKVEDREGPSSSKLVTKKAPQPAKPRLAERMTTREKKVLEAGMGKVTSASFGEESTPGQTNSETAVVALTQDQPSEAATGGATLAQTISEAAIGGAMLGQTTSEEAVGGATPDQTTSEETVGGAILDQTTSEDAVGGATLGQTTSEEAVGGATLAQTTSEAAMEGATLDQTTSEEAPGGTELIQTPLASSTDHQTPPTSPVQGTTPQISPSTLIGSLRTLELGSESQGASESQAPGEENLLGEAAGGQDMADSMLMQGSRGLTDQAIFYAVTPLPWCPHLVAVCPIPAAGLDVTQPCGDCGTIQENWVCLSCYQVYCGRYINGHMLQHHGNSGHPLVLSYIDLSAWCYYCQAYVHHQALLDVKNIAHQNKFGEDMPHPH
Procedure, shortened: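 Sf-9-expressed GST-purified full-length HDAC1/HDAC6; cpd + enzyme 60 min RT, 24 mM Tris-HCl pH 7.5, 135 mM NaCl, 0.6 mM glutathione, 0.01% Tween-20; substrate-developer 20 min RT; luminescence; no-enzyme wells = 100% inhibition.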

SMILES | inhibition at 1 µM [1] | inhibition at 1 µM [2] | HDAC6 inhibitory rate (%) (1 μM) [2] | HDAC1 inhibitory rate (%) (1 μM) ([1]; 1 µM)
O=C(NC[C@H]1COCCN1C(=O)C1CCCCC1)c1ccc(-c2noc(C(F)(F)F)n2)cn1 [Example 204, N-(((3S)-4-(cyclohexylcarbonyl)morpholin-3-yl)methyl)-5-(5-(trifluoromethyl)-1,2,4-oxadiazol-3-yl)pyridine-2-carboxamide] | 22% | 97% |  | 
O=C(NC[C@H]1COCCN1C(=O)c1ccncc1)c1ccc(-c2noc(C(F)(F)F)n2)cc1 [Example 48, N-(((3S)-4-isonicotinoylmorpholin-3-yl)methyl)-4-(5-(trifluoromethyl)-1,2,4-oxadiazol-3-yl)benzamide] | 16% |  | 98% | 
O=C(NC[C@H]1COCCN1C(=O)N1CCCC(F)(F)C1)c1ccc(-c2noc(C(F)(F)F)n2)cc1 [Example 307, N-(((3S)-4-((3,3-difluoropiperidin-1-yl)carbonyl)morpholin-3-yl)methyl)-4-(5-(trifluoromethyl)-1,2,4-oxadiazol-3-yl)benzamide] | 9% | 98% |  | 
N#C[C@H]1CCCN1C(=O)N1CCOC[C@@H]1CNC(=O)c1ccc(-c2noc(C(F)(F)F)n2)cc1 [Example 284, N-(((3S)-4-(((2R)-2-cyanopyrrolidin-1-yl)carbonyl)morpholin-3-yl)methyl)-4-(5-(trifluoromethyl)-1,2,4-oxadiazol-3-yl)benzamide] | 1% | 95% |  | 
O=C(NCC1COCCN1C(=O)C1C2CC3CC(C2)CC1C3)c1ccc(-c2noc(C(F)(F)F)n2)s1 (centres unmarked) [Example 256, N-((4-(adamantan-2-ylcarbonyl)morpholin-3-yl)methyl)-5-(5-(trifluoromethyl)-1,2,4-oxadiazol-3-yl)thiophene-2-carboxamide] | 34% | 99% |  | 
O=C(NC[C@@H]1COCCN1C(=O)C1CCCC1)c1ccc(-c2noc(C(F)(F)F)n2)cc1 [Example 149, N-(((3R)-4-(cyclopentylcarbonyl)morpholin-3-yl)methyl)-4-(5-(trifluoromethyl)-1,2,4-oxadiazol-3-yl)benzamide] | 12% | 96% |  | 
O=C(NC[C@@H]1COCCN1C(=O)CC1CC1)c1ccc(-c2noc(C(F)(F)F)n2)cc1 [Example 148, N-(((3R)-4-(cyclopropylacetyl)morpholin-3-yl)methyl)-4-(5-(trifluoromethyl)-1,2,4-oxadiazol-3-yl)benzamide] | 10% | 95% |  | 
O=C(NC[C@H]1COCCN1C(=O)N1CCC(c2ccccc2)C1)c1ccc(-c2noc(C(F)(F)F)n2)cc1 (stereo partly drawn) [Example 293, N-(((3S)-4-((3-phenylpyrrolidin-1-yl)carbonyl)morpholin-3-yl)methyl)-4-(5-(trifluoromethyl)-1,2,4-oxadiazol-3-yl)benzamide] | 14% | 90% |  | 
O=C(NC[C@H]1COCCN1C(=O)N1CCOCC1CO)c1ccc(-c2noc(C(F)(F)F)n2)cc1 (stereo partly drawn) [Example 311, N-(((3S)-4-((3-(hydroxymethyl)morpholin-4-yl)carbonyl)morpholin-3-yl)methyl)-4-(5-(trifluoromethyl)-1,2,4-oxadiazol-3-yl)benzamide] |  |  | 96% | 7%
O=C(NCC1CCc2ccccc2N1C(=O)C1CC1)c1ccc(-c2noc(C(F)(F)F)n2)cc1 (centres unmarked) [Example 172, N-((1-(cyclopropylcarbonyl)-1,2,3,4-tetrahydroquinolin-2-yl)methyl)-4-(5-(trifluoromethyl)-1,2,4-oxadiazol-3-yl)benzamide] | 8% | 95% |  | 
O=C(NCC1COCCN1C(=O)c1cccs1)c1ccc(-c2noc(C(F)(F)F)n2)cc1 (centres unmarked) [Example 15, N-((4-(2-thienylcarbonyl)morpholin-3-yl)methyl)-4-(5-(trifluoromethyl)-1,2,4-oxadiazol-3-yl)benzamide] | 20% | 98% |  | 
Cc1cc(C(=O)N2CCOC[C@H]2CNC(=O)c2ccc(-c3noc(C(F)(F)F)n3)cc2)on1 [Example 134, N-(((3R)-4-((3-methyl-1,2-oxazol-5-yl)carbonyl)morpholin-3-yl)methyl)-4-(5-(trifluoromethyl)-1,2,4-oxadiazol-3-yl)benzamide] | 11% | 97% |  | 
O=C(NC[C@@H]1COCCN1C(=O)C1(c2ccccc2)CC1)c1ccc(-c2noc(C(F)(F)F)n2)cn1 [Example 208, N-(((3R)-4-((1-phenylcyclopropyl)carbonyl)morpholin-3-yl)methyl)-5-(5-(trifluoromethyl)-1,2,4-oxadiazol-3-yl)pyridine-2-carboxamide] | 16% | 92% |  | 
CN(CC1COCCN1C(=O)c1ccccc1)C(=O)c1ccc(-c2noc(C(F)(F)F)n2)cc1 (centres unmarked) [Example 159, N-((4-benzoylmorpholin-3-yl)methyl)-N-methyl-4-(5-(trifluoromethyl)-1,2,4-oxadiazol-3-yl)benzamide] | 11% | 42% |  | 
O=C(NC[C@@H]1COCCN1C(=O)c1ccno1)c1ccc(-c2noc(C(F)(F)F)n2)cc1 [Example 133, N-(((3R)-4-(1,2-oxazol-5-ylcarbonyl)morpholin-3-yl)methyl)-4-(5-(trifluoromethyl)-1,2,4-oxadiazol-3-yl)benzamide] | 6% | 96% |  | 
O=C(NCC1COCCN1C(=O)c1cc(Cl)cc(Cl)c1)c1ccc(-c2noc(C(F)(F)F)n2)cc1 (stereo in doubt) [Example 112, N-(((3R)-4-(3,5-dichlorobenzoyl)morpholin-3-yl)methyl)-4-(5-(trifluoromethyl)-1,2,4-oxadiazol-3-yl)benzamide] | 16% | 97% |  | 
N#Cc1cc(Cl)cc(C(=O)N2CCOC[C@@H]2CNC(=O)c2ccc(-c3noc(C(F)(F)F)n3)cc2)c1 [Example 86, N-(((3S)-4-(3-chloro-5-cyanobenzoyl)morpholin-3-yl)methyl)-4-(5-(trifluoromethyl)-1,2,4-oxadiazol-3-yl)benzamide] | 24% | 98% |  | 
Cc1oncc1C(=O)N1CCOCC1CNC(=O)c1ccc(-c2noc(C(F)(F)F)n2)s1 (centres unmarked) [Example 235, N-((4-((5-methyl-1,2-oxazol-4-yl)carbonyl)morpholin-3-yl)methyl)-5-(5-(trifluoromethyl)-1,2,4-oxadiazol-3-yl)thiophene-2-carboxamide] | 17% | 99% |  | 
Cn1cc2c(C(=O)N3CCOC[C@@H]3CNC(=O)c3ccc(-c4noc(C(F)(F)F)n4)cc3)cccc2n1 [Example 85, N-(((3S)-4-((2-methyl-2H-indazol-4-yl)carbonyl)morpholin-3-yl)methyl)-4-(5-(trifluoromethyl)-1,2,4-oxadiazol-3-yl)benzamide] | 15% | 96% |  | 
